Results reported in patent publication US20100160214A1 (SERENITY PHARMACEUTICALS CORPORATION, priority 2008, published 2010).
Where two headings read alike, the source gives them in different places.

How the values were obtained:
[1] = in vivo, cited from earlier work
clinical = settings: human, in vivo; for CL/F / bioavailability / Tmax / half-life: both; for bioavailability: F % (fraction bioavailable)
Procedure: The open-label preliminary study of the effects and pharmacokinetics of the prototype composition was conducted with six male and six female healthy, water loaded, non-smoking volunteer subjects, following the protocol described generally below. In summary, each subject was dosed up to four times over a period of one week with dosing administered every other day. […] All subjects were screened prior to the first treatment, including evaluations of medical history, complete physical exam including nasopharyngeal exam, serum chemistry including serum osmolality, urinalysis including urine osmolality.
On day one all subjects were asked to have his/her morning void prior to breakfast, and thereafter subjects started the water loading process. […] To achieve a steady state diuresis, the subjects were directed to drink a volume of water corresponding to at least 1.5% and up to 3% of body weight. The water loading process started about two hours prior to the dosing of the first subject. Subjects were asked to void every 20 minutes. To ensure continuous water loaded state, the subjects replaced their urinary output loss with an equivalent amount of fluid. Insensible loss was not measured or replaced. When the urinary output rate exceeded 10 ml/min in two consecutive measurements (defined as water loaded state) in the subjects, dosing began. Subjects were maintained in the water loaded state with equivalent fluid intake versus fluid loss.
Blood sampling for pharmacokinetic determinations was performed at 1, 1.5, 2, 3, 4 and 6 hours post dose. Two seven ml blood samples were collected at each time point. […] 3.2 (Pharsight Corporation, USA). A plasma concentration value below the limit of quantitation (“LOQ”) followed by values above the limit was set at ‘LOQ/2’ for the analysis and for the descriptive statistics on concentrations. Values below LOQ not followed by values above the LOQ were excluded from the analysis, and set to zero in the descriptive statistics on concentrations.
(§1) Other than the dose level, all procedures were the same as those described for day one.
as §1
Other than the dosing paradigm, all procedures were the same as described on day one.
Assay values below the level of detection that occurred between two non-zero concentrations were considered to be “missing” for purposes of calculating the AUC. […] Accordingly, an average terminal half-life (Avg T1/2) was calculated for each subject that included a treatment with evaluable half-lives in that subject. […] The AUC could be calculated for each treatment and subject using the calculated average T1/2 value.
The AUCall is the AUC calculated using the trapezoidal rule that assumes that the concentration declines to 0.00 at the next sample collection time following the last quantifiable concentration. In the cases where concentrations had not declined to below the limit of detection by the time of the last scheduled sample, AUCall was the same as AUCtlqc.
The AUCtlqc is the AUC as calculated to the Time of the Last Quantifiable Concentration. This value is extrapolated using the ratio of the last quantifiable concentration and the terminal elimination rate to give the AUC∞. Therefore AUC∞ is always larger than the AUCtlqc. AUCall will also always be equal to or greater than AUCtlqc, but may be larger or smaller than AUC∞.

- CL/F (clinical): 383 mL/min
- bioavailability (clinical): ~55%
- CL/F (clinical; sc): 233 mL/min
- Tmax (clinical; sc): 0.88 ± 0.349 h
- half-life (clinical; sc, Avg T1/2): 1.68 ± 0.66 h
- bioavailability (clinical; sc): 100%
- half-life (clinical; sc, T1/2): 2.09 ± 0.32 h
- Tmax (clinical; topical or ocular): 0.8 ± 0.406 h
- half-life (clinical; topical or ocular, Avg T1/2): 1.2 ± 0.42 h
- half-life (clinical; topical or ocular, T1/2): 1.39 ± 0.61 h
- AUC∞* (modified AUC∞ using average T1/2) (clinical; sc): 0.00785 ± 0.00421 ng·h/mL
- AUC∞* (modified AUC∞ using average T1/2) (clinical; topical or ocular): 0.00446 ± 0.00309 ng·h/mL
Compound: NC(=O)CC[C@@H]1NC(=O)[C@H](Cc2ccccc2)NC(=O)[C@H](Cc2ccc(O)cc2)NC(=O)CCSSC[C@@H](C(=O)N2CCC[C@H]2C(=O)N[C@H](CCCN=C(N)N)C(=O)NCC(N)=O)NC(=O)[C@H](CC(N)=O)NC1=O [desmopressin, 1-desamino-8-D-arginine vasopressin]
- bioavailability ([1]; human, inhaled or intranasal): 3-5%
- half life ([1]; human): ≥ 1.5 h
- range of Cmax ([1]; inhaled or intranasal, 20 ug): 6-10 fold
- bioavailability ([1]; po): far less than one percent
